According to patent publication US20240224999A1, “METABOLIC INHIBITORS FOR CONTROLLING BIOFILM” (MC (US) 3 LLC, priority 2021, published 2024):
“Also recorded” adds a separate entry of the source.

What was measured:
[1] = test system: Desulfovibrio alaskensis 14563; experiment: MBEC biofilm efficacy, Log (Growth) by enumeration; format: cell-based; conditions: for Log (Growth): biofilm; for efficacy in controlling biofilm formation (in words): tested individually, standard temperature and pressure
Description: (§1) Strains of commonly found bacteria were used for testing the efficacy of the compounds, viz. Desulfovibrio alaskensis and Desulfovibrio vulgaris. Media for the cultures was also prepared by using a standard method. The cultures were aseptically used and incubated under anaerobic conditions. They were plated with an MBEC (minimal biofilm eradication concentration) lid, to allow for biofilm growth. […] Then the plates were rinsed, sonicated and enumerated. These enumerations were grown for 5-days for the readings.
(§2) A lyophilized Desulfovibrio alaskensis 14563, Desulfovibrio vulgaris 29579 pure cultures received from ATCC were resuspended individually in 500 ul of MB 1250. Aseptically, the content was transferred to a 5-mL tube of MB1250 medium. The cultures were incubated in an anaerobic chamber at 30° C. for 72 hrs. Subsequently, an individual stock culture with a final concentration of 25% glycerol were prepared by adding equal volumes of culture and 50% glycerol. 1 ml of the cultures were then transferred to 2-ml cryogenic vials and stored at −80° C. The purity of the stock cultures was evaluated through PCR, by amplifying the 16S rDNA region, and thus, it was verified that the original ATCC sample was a pure culture.
(§3) 48-hour cultures of ATCC Desulfovibrio alaskensis 14563 and Desulfovibrio vulgaris 29579 were prepared in an anaerobic chamber. Each culture was prepared as a 1:10 culture by taking 1 milliliter (mL) of a pure culture and inoculating 9 milliliters (mL) of fresh SRB2-LA media. Prepared cultures were incubated at 30° C. and further diluted 1:100 in SRB2-LA media after incubation. They were grown for another 24 hours then diluted 1:10. The 1:10 dilution was plated with an MBEC (minimal biofilm eradication concentration) lid, which would allow for biofilm growth.
(§4) Treatment plates were prepared by adding 180 μL of fresh phosphate buffer amended with 10% SRB2-LA media to each well. These wells were then dosed with the compounds of interest with a ppm range of 200 to 1 PPM. Edge wells were not used due to their inherent variability and evaporation of the media. Each experiment was done with at least three replicates for different treatments and non-treatment controls. After incubation of the MBEC plate, the MBEC lid was removed and added to a rinse plate containing phosphate buffer and 10% SRB2-LA. The lid was rinsed for 30 seconds then added to the treatment plate. The MBEC lids had 6 hours to 3 days of exposure time. After targeted exposure time, the plates were rinsed, sonicated, and enumerated. The rinse was done for 30 seconds in 10% SRB2-LA with phosphate buffer. Following the rinse, the lid was added to a plate with the same media and buffer mix and the plate was sonicated for 5 minutes. After five minutes, the lid was discarded, and each row of the plate was enumerated. These enumerations were grown for 5 days before being read.

[2] = test system: Desulfovibrio vulgaris 29579; experiment: MBEC biofilm efficacy, Log (Growth) by enumeration; format: cell-based; conditions: testing time 2 days
Description: as §1, §2, §3, §4

With `CCCCCCCC(=O)NO` [Compound C16] the “Log (Growth)” value ([1]; testing time 2 days, 5 PPM) was 5, the “Log (Growth)” value ([1]; testing time 2 days, 25 PPM) was 5 and the “Log (Growth)” value ([1]; testing time 2 days, 50 PPM) was 3. The “Log (Growth)” value ([1]; testing time 2 days, 100 PPM) was 1, the “Log (Growth)” value ([1]; testing time 2 days, 200 PPM) was 0 and the “efficacy in controlling biofilm formation (in words)” value (“efficacy” for short) [1] was “significant activity in controlling biofilms; also recorded: exhibited efficacy”.

In the case of `O=C(CN1C(=O)c2cccc3cccc(c23)C1=O)NO` [Compound C1], the “Log (Growth)” value ([2]; 5 PPM) is reported as 4, the “Log (Growth)” value ([2]; 25 PPM) is reported as 1 and the “Log (Growth)” value ([2]; 50 PPM) is reported as 1. For the same molecule, the “Log (Growth)” value ([2]; 100 PPM) was 0, the “Log (Growth)” value ([2]; 200 PPM) was 1 and the “Log (Growth)” value ([1]; testing time 6 hours, 1 PPM) was 4. The “Log (Growth)” value ([1]; testing time 6 hours, 5 PPM) was 2, the “Log (Growth)” value ([1]; testing time 6 hours, 10 PPM) was 1 and the “Log (Growth)” value ([1]; testing time 6 hours, 25 PPM) was 1. For the same molecule, the “Log (Growth)” value ([1]; testing time 6 hours, 50 PPM) was 1, the “Log (Growth)” value ([1]; testing time 18 hours, 1 PPM) was 1 and the “Log (Growth)” value ([1]; testing time 18 hours, 5 PPM) was 0. For the same molecule, the “Log (Growth)” value ([1]; testing time 18 hours, 10 PPM) was 0, the “Log (Growth)” value ([1]; testing time 18 hours, 25 PPM) was 0 and the “Log (Growth)” value ([1]; testing time 18 hours, 50 PPM) was 0. For the same molecule, the “Log (Growth)” value ([1]; testing time 2 days, 1 PPM) was 0, the “Log (Growth)” value ([1]; testing time 2 days, 2.5 PPM) was 0 and the “Log (Growth)” value ([1]; testing time 2 days, 10 PPM) was 0. The “Log (Growth)” value ([1]; testing time 2 days, 15 PPM) was 0, the “Log (Growth)” value ([1]; testing time 2 days, 20 PPM) was 0 and the “Log (Growth)” value ([1]; testing time 2 days, 25 PPM) was 0. For the same molecule, the “Log (Growth)” value ([1]; testing time 2 days, 40 PPM) was 0, the “Log (Growth)” value ([1]; testing time 2 days, 50 PPM) was 0 and the “Log (Growth)” value ([1]; testing time 3 days, 50 PPM) was 0. For the same molecule, the “Log (Growth)” value ([1]; testing time 3 days, 100 PPM) was 0, the “Log (Growth)” value ([1]; testing time 3 days, 200 PPM) was 0 and the “killing of the microorganism strain Desulfovibrio alaskensis (in words)” value ([1]; comparative testing against two commercial products, metabolic inhibition) was “completely killing”. For the same molecule, the “efficacy” value [1] was “significant activity in controlling biofilms; also recorded: highest efficacy”.

In the case of `O=C(CCCN1C(=O)c2cccc3cccc(c23)C1=O)NO` [Compound C12], the “Log (Growth)” value ([1]; testing time 2 days, 5 PPM) is reported as 1, the “Log (Growth)” value ([1]; testing time 2 days, 25 PPM) is reported as 0 and the “Log (Growth)” value ([1]; testing time 2 days, 50 PPM) is reported as 1. The “Log (Growth)” value ([1]; testing time 2 days, 100 PPM) was 0.3, the “Log (Growth)” value ([1]; testing time 2 days, 200 PPM) was 0 and the “efficacy” value [1] was “significant activity in controlling biofilms; also recorded: exhibited efficacy”.
